The source of these data is US10316035B2, “Triazolopyridine inhibitors of myeloperoxidase” (BRISTOL-MYERS SQUIBB COMPANY, priority 2015, dated 2019).

pIC50: −log10 of the molar value.

The target of the first experiment is T1, myeloperoxidase (MPO) (Homo sapiens, UniProt P05164).
T1 sequence (P05164 49-745): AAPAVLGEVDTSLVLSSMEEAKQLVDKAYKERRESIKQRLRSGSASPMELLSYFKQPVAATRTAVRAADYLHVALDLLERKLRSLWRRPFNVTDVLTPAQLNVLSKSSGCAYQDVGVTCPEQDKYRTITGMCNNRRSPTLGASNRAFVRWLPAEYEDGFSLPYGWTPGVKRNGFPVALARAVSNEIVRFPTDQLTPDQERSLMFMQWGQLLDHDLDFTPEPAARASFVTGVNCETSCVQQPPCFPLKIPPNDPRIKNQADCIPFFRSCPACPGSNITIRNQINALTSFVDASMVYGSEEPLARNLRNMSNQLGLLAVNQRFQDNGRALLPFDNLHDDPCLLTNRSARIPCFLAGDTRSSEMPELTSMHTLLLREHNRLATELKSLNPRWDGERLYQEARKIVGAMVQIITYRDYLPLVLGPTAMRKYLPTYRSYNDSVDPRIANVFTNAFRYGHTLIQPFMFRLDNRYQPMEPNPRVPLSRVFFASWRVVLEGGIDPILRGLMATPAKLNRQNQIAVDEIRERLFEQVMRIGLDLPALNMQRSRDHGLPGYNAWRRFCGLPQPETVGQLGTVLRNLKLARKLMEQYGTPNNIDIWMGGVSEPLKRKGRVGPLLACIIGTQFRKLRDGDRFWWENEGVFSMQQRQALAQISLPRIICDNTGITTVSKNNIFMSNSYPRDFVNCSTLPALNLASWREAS
The experiment in a line: MPO peroxidation assay (Amplex Red assay).
Settings: not given
The format is biochemical. The method, boiled down: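 MPO (200 pM) with 40 nM H2O2 was preincubated 10 min at room temperature with inhibitor in 100 mM KPi pH 7.4. A mix of Amplex Red (200 μM) and H2O2 (10 mM) was then added and resorufin fluorescence read kinetically for 15 min. Slopes over 180–540 s gave % inhibition and IC50 via a four-parameter Hill fit.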
As a reminder, the pIC50 is the negative decadic logarithm of the IC50, by convention in mol/L. Take `Cc1c(COc2cc(N)nc3[nH]nnc23)cccc1-c1ccn(C)n1` [Example 81, 7-(2-Methyl-3-(1-methyl-1H-pyrazol-3-yl)benzyloxy)-3H-[1,2,3]triazolo[4,5-b]pyridin-5-amine]: the pIC50 was 7.00 to 9.00.

Consider `Nc1cc(OCc2cccc(-c3cccc(F)c3)c2)c2nn[nH]c2n1` [Example 91, 7-((3′-Fluorobiphenyl-3-yl)methoxy)-3H-[1,2,3]triazolo[4,5-b]pyridin-5-amine], for which the pIC50 was 7.00 to 9.00.

Take `Nc1cc(OCc2cccc(-c3ccccc3F)c2)c2nn[nH]c2n1` [Example 96, 7-((2′-Fluorobiphenyl-3-yl)methoxy)-3H-[1,2,3]triazolo[4,5-b]pyridin-5-amine]: the negative-log IC50 (pIC50) is 7.00 to 9.00.

The experiment is the same for the next values; noted with them: MPO peroxidation, potency range class; read-out: Amplex Red IC50.
On to `CC(C)Cn1cc(-c2ccc(F)c(COc3cc(N)nc4[nH]nnc34)c2)cn1` [Example 82, 7-(2-Fluoro-5-(1-isobutyl-1H-pyrazol-4-yl)benzyloxy)-3H-[1,2,3]triazolo[4,5-b]pyridin-5-amine], for which the negative-log IC50 (pIC50) is 7.00 to 9.00.

`COc1ccc(-n2cncn2)cc1COc1cc(N)nc2[nH]nnc12` [Example 83, 7-(2-Methoxy-5-(1H-1,2,4-triazol-1-yl)benzyloxy)-3H-[1,2,3]triazolo[4,5-b]pyridin-5-amine]: the pIC50 was 7.00 to 9.00.

As to `Cc1cn(-c2cccc(COc3cc(N)nc4[nH]nnc34)c2)cn1` [Example 84, 7-(3-(4-Methyl-1H-imidazol-1-yl)benzyloxy)-3H-[1,2,3]triazolo[4,5-b]pyridin-5-amine], the pIC50 is 6.00 to 7.00.

Consider `Cc1ccn(-c2cccc(COc3cc(N)nc4[nH]nnc34)c2)n1` [Example 85, 7-(3-(3-Methyl-1H-pyrazol-1-yl)benzyloxy)-3H-[1,2,3]triazolo[4,5-b]pyridin-5-amine], for which the pIC50 is 6.00 to 7.00.

As to `Cc1c(COc2cc(N)nc3[nH]nnc23)cccc1-n1cncn1` [Example 86, 7-(2-Methyl-3-(1H-1,2,4-triazol-1-yl)benzyloxy)-3H-[1,2,3]triazolo[4,5-b]pyridin-5-amine], the pIC50 was 7.00 to 9.00.

As to `COc1ccc(-n2cnc(C)n2)cc1COc1cc(N)nc2[nH]nnc12` [Example 87, 7-(2-Methoxy-5-(3-methyl-1H-1,2,4-triazol-1-yl)benzyloxy)-3H-[1,2,3]triazolo[4,5-b]pyridin-5-amine], the negative logarithm of the IC50 (pIC50) was 5.00 to 6.00.

Turning to `CCOc1ccc(Cl)cc1COc1cc(N)nc2[nH]nnc12` [Example 88, 7-(5-Chloro-2-ethoxybenzyloxy)-3H-[1,2,3]triazolo[4,5-b]pyridin-5-amine], the pIC50 is 7.00 to 9.00.

`Nc1cc(OCc2cc(Cl)ccc2OCC2CCCO2)c2nn[nH]c2n1` (centres unmarked) [Example 89, 7-(5-Chloro-2-((tetrahydrofuran-2-yl)methoxy)benzyloxy)-3H-[1,2,3]triazolo[4,5-b]pyridin-5-amine]: the pIC50 was 7.00 to 9.00.

Regarding `Nc1cc(OCC2CCC(c3ccccc3)CC2)c2nn[nH]c2n1` (centres unmarked) [Example 90, 7-((4-Phenylcyclohexyl)methoxy)-3H-[1,2,3]triazolo[4,5-b]pyridin-5-amine], the pIC50 is 7.00 to 9.00.

On to `N#Cc1cccc(-c2cccc(COc3cc(N)nc4[nH]nnc34)c2)c1` [Example 92, 3′-((5-Amino-3H-[1,2,3]triazolo[4,5-b]pyridin-7-yloxy)methyl)biphenyl-3-carbonitrile], for which the negative logarithm of the IC50 (pIC50) is 7.00 to 9.00.

With `Nc1cc(OCc2cccc(-c3ccccc3Cl)c2)c2nn[nH]c2n1` [Example 93, 7-((2′-Chlorobiphenyl-3-yl)methoxy)-3H-[1,2,3]triazolo[4,5-b]pyridin-5-amine], the pIC50 was 7.00 to 9.00.

For `Nc1cc(OCc2cccc(-c3ccc(F)cc3)c2)c2nn[nH]c2n1` [Example 95, 7-((4′-Fluorobiphenyl-3-yl)methoxy)-3H-[1,2,3]triazolo[4,5-b]pyridin-5-amine], the negative logarithm of the IC50 (pIC50) was 7.00 to 9.00.

For `Nc1cc(OCc2cccc(-c3ccc(Cl)cc3)c2)c2nn[nH]c2n1` [Example 97, 7-((4′-Chlorobiphenyl-3-yl)methoxy)-3H-[1,2,3]triazolo[4,5-b]pyridin-5-amine], the pIC50 was 6.00 to 7.00.

Consider `Nc1cc(OCc2cccc(-c3ccc(-c4ccn[nH]4)cc3)c2)c2nn[nH]c2n1` [Example 98, 7-((4′-(1H-Pyrazol-5-yl)biphenyl-3-yl)methoxy)-3H-[1,2,3]triazolo[4,5-b]pyridin-5-amine], for which the pIC50 was 7.00 to 9.00.

Turning to `CN1CCN(c2ccc(-c3cccc(COc4cc(N)nc5[nH]nnc45)c3)cc2)CC1` [Example 99, 7-((4′-(4-Methylpiperazin-1-yl)biphenyl-3-yl)methoxy)-3H-[1,2,3]triazolo[4,5-b]pyridin-5-amine], the pIC50 was 6.00 to 7.00.

With `Nc1cc(OCc2cccc(-c3ccc(NC(=O)c4ccccc4)cc3)c2)c2nn[nH]c2n1` [Example 100, N-(3′-((5-Amino-3H-[1,2,3]triazolo[4,5-b]pyridin-7-yloxy)methyl)biphenyl-4-yl)benzamide], the negative-log IC50 (pIC50) was 7.00 to 9.00.

`N#Cc1ccc(-c2cccc(COc3cc(N)nc4[nH]nnc34)c2)cc1` [Example 101, 3′-((5-Amino-3H-[1,2,3]triazolo[4,5-b]pyridin-7-yloxy)methyl)biphenyl-4-carbonitrile]: the pIC50 is 7.00 to 9.00.

As for `Nc1cc(OCc2cccc(-c3ccc(-c4ccccc4)cc3)c2)c2nn[nH]c2n1` [Example 102, 7-((4′-Phenylbiphenyl-3-yl)methoxy)-3H-[1,2,3]triazolo[4,5-b]pyridin-5-amine], the pIC50 is 6.00 to 7.00.

As for `Nc1cc(OCc2cccc(-c3cccnc3)c2)c2nn[nH]c2n1` [Example 103, 7-(3-(Pyridin-3-yl)benzyloxy)-3H-[1,2,3]triazolo[4,5-b]pyridin-5-amine], the pIC50 was 7.00 to 9.00.

Turning to `Nc1cc(OCc2cccc(-c3ccc(C(=O)Nc4ccccc4)cc3)c2)c2nn[nH]c2n1` [Example 104, 3′-((5-Amino-3H-[1,2,3]triazolo[4,5-b]pyridin-7-yloxy)methyl)-N-phenylbiphenyl-4-carboxamide], the negative-log IC50 (pIC50) is 6.00 to 7.00.

On to `COc1ccc(-c2cccc(COc3cc(N)nc4[nH]nnc34)c2)cc1F` [Example 105, 7-((3′-Fluoro-4′-methoxybiphenyl-3-yl)methoxy)-3H-[1,2,3]triazolo[4,5-b]pyridin-5-amine], for which the pIC50 is 7.00 to 9.00.

Turning to `Nc1cc(OCc2ccc(Br)cc2)c2nn[nH]c2n1` [Example 106, 7-(4-Bromobenzyloxy)-3H-[1,2,3]triazolo[4,5-b]pyridin-5-amine], the pIC50 is 7.00 to 9.00.

`CCN(C)C(=O)c1ccc(-c2ccc(COc3cc(N)nc4[nH]nnc34)cc2)cc1F` [Example 107, 4′-((5-Amino-3H-[1,2,3]triazolo[4,5-b]pyridin-7-yloxy)methyl)-N-ethyl-3-fluoro-N-methylbiphenyl-4-carboxamide]: the negative-log IC50 (pIC50) was 6.00 to 7.00.

For `COc1ccc(-c2ccc(COc3cc(N)nc4[nH]nnc34)cc2)cc1F` [Example 108, 7-((3′-Fluoro-4′-methoxybiphenyl-4-yl)methoxy)-3H-[1,2,3]triazolo[4,5-b]pyridin-5-amine], the pIC50 is 6.00 to 7.00.

Take `Nc1cc(OCc2ccc(-c3ccccc3Cl)cc2)c2nn[nH]c2n1` [Example 109, 7-((2′-Chlorobiphenyl-4-yl)methoxy)-3H-[1,2,3]triazolo[4,5-b]pyridin-5-amine]: the pIC50 is 6.00 to 7.00.

For the compound `N#Cc1cccc(-c2ccc(COc3cc(N)nc4[nH]nnc34)cc2)c1` [Example 110, 4′-((5-Amino-3H-[1,2,3]triazolo[4,5-b]pyridin-7-yloxy)methyl)biphenyl-3-carbonitrile], the pIC50 is 5.00 to 6.00.

Consider `Nc1cc(OCc2ccc(-c3cccc(Cl)c3)cc2)c2nn[nH]c2n1` [Example 111, 7-((3′-Chlorobiphenyl-4-yl)methoxy)-3H-[1,2,3]triazolo[4,5-b]pyridin-5-amine], for which the pIC50 was 5.00 to 6.00.

Regarding `COc1cccc(-c2ccc(COc3cc(N)nc4[nH]nnc34)cc2)c1` [Example 112, 7-((3′-Methoxybiphenyl-4-yl)methoxy)-3H-[1,2,3]triazolo[4,5-b]pyridin-5-amine], the pIC50 was 6.00 to 7.00.

For `COc1cccc(-c2cccc(COc3cc(N)nc4[nH]nnc34)c2)c1` [Example 113, 7-((3′-Methoxybiphenyl-3-yl)methoxy)-3H-[1,2,3]triazolo[4,5-b]pyridin-5-amine], the negative-log IC50 (pIC50) is 7.00 to 9.00.

In the case of `Nc1cc(OCc2ccc(-c3ccccc3F)cc2)c2nn[nH]c2n1` [Example 114, 7-((2′-Fluorobiphenyl-4-yl)methoxy)-3H-[1,2,3]triazolo[4,5-b]pyridin-5-amine], the negative logarithm of the IC50 (pIC50) is 6.00 to 7.00.

Regarding `COc1c(F)cccc1-c1cccc(COc2cc(N)nc3[nH]nnc23)c1` [Example 115, 7-((3′-Fluoro-2′-methoxybiphenyl-3-yl)methoxy)-3H-[1,2,3]triazolo[4,5-b]pyridin-5-amine], the pIC50 is 7.00 to 9.00.

Take `CCN(C)C(=O)c1ccc(-c2cccc(COc3cc(N)nc4[nH]nnc34)c2)cc1F` [Example 116, 3′-((5-Amino-3H-[1,2,3]triazolo[4,5-b]pyridin-7-yloxy)methyl)-N-ethyl-3-fluoro-N-methylbiphenyl-4-carboxamide]: the pIC50 was 6.00 to 7.00.
